# In patent US20240308995A1, “O-GLYCOPROTEIN-2-ACETAMIDO-2-DEOXY-3-D-GLUCOPYRANOSIDASE INHIBITORS” (BIOGEN MA INC., priority 2018, published 2024):
# Legend:
# [1] = target: OGA (S400 O-GLCNAC), HEK-293T cells transfected with Tau-V5 (Homo sapiens (Human), UniProt O60502); test: Cellular OGA-Tau MSD Assay; assay type: cell-based; conditions: HEK-293T cells, Tau-S400-GlcNAc MSD readout
# Method in brief: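 HEK-293T cells transfected with OGA and Tau-V5 plasmids were treated overnight at 37° C with a 10-point, 3-fold titration from 1 uM. Lysates went onto V5-antibody MSD plates to capture Tau, probed with a Tau O-GlcNAc antibody and read by electrochemiluminescence; IC50 from a 4-parameter fit.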
# [2] = Rat Liver Microsome Stability Assay; assay type: in vitro ADME; conditions: rat liver microsomes, 1 uM compound
# P-gp (MDR1) = test: MDR1-MDCK Efflux Ratio Assay; assay type: in vitro ADME; conditions: dog, MDCK-MDR1, pH 7.4, MDR1-MDCK cells, 2 hr, pH 7.4; read-out: MDR1-MDCK Efflux Ratio (B-A/A-B)
# Method in brief: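 Bidirectional (apical↔basolateral) transport across confluent MDR1-MDCK monolayers in HBSS/10 mM HEPES pH 7.4, receiver buffer with 1% BSA; 2 hr at 37° C, 5% CO2. Donor sampled at 0 and 120 min, receiver at 120 min, quantified by LC-MS/MS in triplicate. Papp, efflux ratio and percent recovery calculated.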
# [3] = target: Recombinant full length human OGA enzyme (Homo sapiens (Human), UniProt O60502); test: OGA Enzyme Inhibition Biochemical Assay; conditions: 1 nM OGA, 100 μM 4-MUGlcNAc, pH 6.4
# Recombinant full length human OGA enzyme, sequence (O60502 whole entry): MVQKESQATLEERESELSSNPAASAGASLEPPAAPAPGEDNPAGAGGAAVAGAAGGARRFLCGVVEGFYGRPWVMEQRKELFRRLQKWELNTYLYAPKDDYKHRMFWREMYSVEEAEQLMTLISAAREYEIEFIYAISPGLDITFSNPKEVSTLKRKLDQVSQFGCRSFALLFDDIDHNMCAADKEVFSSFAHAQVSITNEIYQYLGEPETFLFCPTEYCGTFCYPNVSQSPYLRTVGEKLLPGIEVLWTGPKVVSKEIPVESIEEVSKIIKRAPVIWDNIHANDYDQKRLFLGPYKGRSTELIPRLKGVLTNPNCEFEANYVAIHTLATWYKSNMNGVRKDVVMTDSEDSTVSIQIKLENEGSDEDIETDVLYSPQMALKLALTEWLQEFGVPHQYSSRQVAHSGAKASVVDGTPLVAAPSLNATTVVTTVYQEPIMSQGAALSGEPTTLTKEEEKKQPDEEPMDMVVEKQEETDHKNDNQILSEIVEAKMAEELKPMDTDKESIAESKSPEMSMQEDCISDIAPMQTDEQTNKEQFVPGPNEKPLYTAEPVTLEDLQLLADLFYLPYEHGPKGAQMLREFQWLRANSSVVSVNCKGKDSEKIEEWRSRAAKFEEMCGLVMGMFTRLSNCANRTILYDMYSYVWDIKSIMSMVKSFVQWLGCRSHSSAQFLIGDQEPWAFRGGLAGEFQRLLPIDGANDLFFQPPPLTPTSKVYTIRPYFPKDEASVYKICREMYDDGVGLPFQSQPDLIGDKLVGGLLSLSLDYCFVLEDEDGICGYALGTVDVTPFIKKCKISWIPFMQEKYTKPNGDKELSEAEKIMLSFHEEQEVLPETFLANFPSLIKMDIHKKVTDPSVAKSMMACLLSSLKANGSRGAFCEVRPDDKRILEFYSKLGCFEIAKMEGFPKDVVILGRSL
# Method in brief: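 Full-length recombinant human OGA with fluorogenic 4-MUGlcNAc in McIlvaine buffer pH 6.4, 0.01% BSA; 90 min at room temperature, glycine pH 10 quench, fluorescence Ex 355/Em 460 nm. 10-point, 4-fold dilution from 20 μM; 4-parameter variable-slope fit.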
# OGA (S400 O-GLCNAC), HEK-293T cells transfected with Tau-V5, sequence (O60502 whole entry): as above
Structure (SMILES),IC50 [1] [nM],RLM % Qh (%) [2] [%],efflux ratio at 2 h (P-gp (MDR1)),IC50 [3] [nM]
"CCN(C)c1cc(O[C@@H]2C[C@H](C)N(Cc3cnc(NC(C)=O)s3)C2)ncn1 [Example 1-132, N-(5-(((2S,4R)-4-((6-(ethyl(methyl)amino)pyrimidin-4-yl)oxy)-2-methylpyrrolidin-1-yl)methyl)thiazol-2-yl)acetamide]",2,76,19.7,< 1
"CC(=O)Nc1ncc(CN2C[C@H](Oc3cc(N4CCC4)ncn3)C[C@@H]2C)s1 [Example 1-133, N-(5-(((2S,4R)-4-((6-(azetidin-1-yl)pyrimidin-4-yl)oxy)-2-methylpyrrolidin-1-yl)methyl)thiazol-2-yl)acetamide]",1,43,23.6,< 1
"COc1ccc(O[C@@H]2C[C@H](C)N(Cc3cnc(NC(C)=O)s3)C2)nn1 [Example 1-68, N-(5-(((2S,4R)-4-((6-methoxypyridazin-3-yl)oxy)-2-methylpyrrolidin-1-yl)methyl)thiazol-2-yl)acetamide]",2,34,28.6,< 1
"CC(=O)Nc1nc(F)c(CN2C[C@@H](Oc3cc(C)nc(C)c3)C[C@@H]2C)s1 [Example 1-52, N-(5-(((2S,4S)-4-((2,6-dimethylpyridin-4-yl)oxy)-2-methylpyrrolidin-1-yl)methyl)-4-fluorothiazol-2-yl)acetamide]",55,76,12.9,33
"CC(=O)Nc1nc(F)c(CN2C[C@H](Oc3ncccc3F)C[C@@H]2C)s1 [Example 1-94, N-(4-fluoro-5-(((2S,4R)-4-((3-fluoropyridin-2-yl)oxy)-2-methylpyrrolidin-1-yl)methyl)thiazol-2-yl)acetamide]",2,91,1.8,< 1
"CC(=O)Nc1nc(F)c(CN2C[C@H](Oc3cnc(C(F)F)cn3)C[C@@H]2C)s1 [Example 1-113, N-(5-(((2S,4R)-4-((5-(difluoromethyl)pyrazin-2-yl)oxy)-2-methylpyrrolidin-1-yl)methyl)-4-fluorothiazol-2-yl)acetamide]",5,61,2.1,2.1
"CC(=O)Nc1ncc(CN2C[C@H](Oc3cc(NC(C)C)ncn3)C[C@@H]2C)s1 [Example 1-136, N-(5-(((2S,4R)-4-((6-(isopropylamino)pyrimidin-4-yl)oxy)-2-methylpyrrolidin-1-yl)methyl)thiazol-2-yl)acetamide]",2,24,32,< 1
"CC(=O)Nc1ncc(CN2CC[C@@H](Oc3ccc(F)cn3)C2)s1 [Example 1-6, (R)—N-(5-((3-((5-fluoropyridin-2-yl)oxy)pyrrolidin-1-yl)methyl)thiazol-2-yl)acetamide]",37,40,1.7,80
"[2H]C(c1cnc(NC(C)=O)s1)N1C[C@H](Oc2cc(OC)ncn2)C[C@@H]1C (single isomer, unassigned) [Example 1-158]",3,29,5.2,< 1
"COc1ncnc(O[C@@H]2C[C@H](C)N(Cc3cnc(NC(C)=O)s3)C2)c1C [Example 1-71, N-(5-(((2S,4R)-4-((6-methoxy-5-methylpyrimidin-4-yl)oxy)-2-methylpyrrolidin-1-yl)methyl)thiazol-2-yl)acetamide]",16,76,3.5,1.7
"CC(=O)Nc1nc(F)c(CN2C[C@H](Oc3cc(F)ccn3)C[C@@H]2C)s1 [Example 1-96, N-(4-fluoro-5-(((2S,4R)-4-((4-fluoropyridin-2-yl)oxy)-2-methylpyrrolidin-1-yl)methyl)thiazol-2-yl)acetamide]",1,86,1.2,< 1
